What was measured:
MC-38 = test: Antitumor activity against mouse MC38 cells inoculated C57BL/6 mouse syngeneic model assessed as tumor growth inhibition at 100 mg/kg, po twice a day for 2 weeks by five days on/two days off schedule relative to control; format: functional; conditions: MC-38, po, 336 h, read-out: TGI
Mus musculus [1] = test: Immunomodulatory activity in mouse MC38 cells inoculated C57BL/6 mouse syngeneic model assessed as […] in M1 like TAM (CD86+ CD11b+ F4/80+)at 100 mg/kg, po twice a day for 2 weeks by five days on/two days off schedule relative to control; format: functional, MC-38
Mus musculus [2] = test: Immunomodulatory activity in mouse MC38 cells inoculated C57BL/6 mouse syngeneic model assessed as decrease in M2 like TAM (CD206+ CD11b F4/80+) at 100 mg/kg, po twice a day for 2 weeks by five days on/two days off schedule relative to control; format: functional, MC-38
[3] = Half life in Sprague-Dawley rat at 5 mg/kg, iv measured up to 24 hrs by LC-MS/MS analysis; format: ADME, organism-based; conditions: in vivo
[4] = Clearance in Sprague-Dawley rat at 5 mg/kg, iv measured up to 24 hrs by LC-MS/MS analysis; format: ADME, organism-based; conditions: in vivo
[5] = Volume of distribution at steady state in Sprague-Dawley rat at 5 mg/kg, iv measured up to 24 hrs by LC-MS/MS analysis; format: ADME, organism-based; conditions: in vivo, read-out: Vdss
[6] = Half life in Sprague-Dawley rat at 20 to 25 mg/kg, po measured up to 24 hrs by LC-MS/MS analysis; format: ADME, organism-based; conditions: in vivo, dose 20-25 mg/kg
[7] = Dose normalized Cmax in Sprague-Dawley rat at 20 to 25 mg/kg, po measured up to 24 hrs by LC-MS/MS analysis; format: ADME, organism-based; conditions: in vivo, dose 20-25 mg/kg
[8] = Tmax in Sprague-Dawley rat at 20 to 25 mg/kg, po measured up to 24 hrs by LC-MS/MS analysis; format: ADME, organism-based; conditions: in vivo, dose 20-25 mg/kg
[9] = Oral bioavailability in Sprague-Dawley rat at 20 to 25 mg/kg measured up to 24 hrs by LC-MS/MS analysis; format: ADME, organism-based; conditions: in vivo, dose 20-25 mg/kg
[10] = Toxicity in C57BL/6 mouse inoculated with mouse MC38 cells assessed as body weight loss at 100 mg/kg, po twice a day for 2 weeks by five days on/two days off schedule relative to control; format: organism-based, MC-38; conditions: in vivo, 336 h

half-life [3]: 2.4 h | clearance [4]: 8.9 mL/min/kg | Vd [5]: 1 L/kg | half-life [6]: 11.6 h | Cmax/dose [7]: 68 ng/mL | Tmax [8]: 0.5 h | bioavailability [9]: 34.9%
SMILES: CN(C)c1ccc2c(Oc3ccc(NC(=O)NCc4ccc(C(F)(F)F)nc4)cc3)ncnc2c1.CS(=O)(=O)O
inhibition in vivo at 100 mg/kg (MC-38): 59% | fold change (FC) (Mus musculus [1]): 3 | fold change (FC) (Mus musculus [2]): 2.5 | Activity [10]: Non-Toxic

— ChEMBL document CHEMBL4842383 (J Med Chem, 2021)
